Structures can show the parent of a compound that is named as a salt.
These compounds were tested against T1, His6-AspH315–758 (human aspartate/asparagine-β-hydroxylase, AspH) (Homo sapiens, UniProt Q12797) (assay: SPE-MS AspH inhibition assay (LOPAC screen at fixed 20 μM and IC50 dose-response), hydroxylation of cyclic peptide hFX-CP101–119). Conditions: not given.
T1 construct: N-Terminally His6-tagged human AspH315–758 (His6-AspH315–758) was produced in E. coli BL21 (DE3) cells; made in house; host or cells: E. coli BL21 (DE3), pET-28a(+) vector
T1 sequence (Q12797 315-758): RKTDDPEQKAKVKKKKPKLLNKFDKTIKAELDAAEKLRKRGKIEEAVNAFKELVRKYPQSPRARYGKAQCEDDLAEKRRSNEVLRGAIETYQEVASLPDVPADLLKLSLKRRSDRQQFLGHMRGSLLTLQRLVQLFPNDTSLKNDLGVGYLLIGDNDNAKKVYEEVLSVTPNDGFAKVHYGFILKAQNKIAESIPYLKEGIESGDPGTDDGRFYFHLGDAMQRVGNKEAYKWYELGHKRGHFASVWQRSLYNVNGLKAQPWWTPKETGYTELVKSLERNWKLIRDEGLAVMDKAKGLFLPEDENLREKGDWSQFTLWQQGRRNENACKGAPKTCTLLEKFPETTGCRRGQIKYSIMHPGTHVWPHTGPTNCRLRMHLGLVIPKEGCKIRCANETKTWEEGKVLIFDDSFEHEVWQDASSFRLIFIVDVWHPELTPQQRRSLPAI
Assay type: biochemical

Structure (SMILES)	Plate 2 (% conversion) [%]	% conversion [%]	Plate 3 (% conversion) [%]	Plate 1 (% conversion) [%]
CN1CC[C@@]2(C)c3cc(OC(=O)Nc4ccccc4)ccc3N(C)[C@@H]12 [Phenserine]	38.49	–	–	–
CCCCCCCCCCCCCC(=O)O[C@@H]1[C@@H](C)[C@@]2(O)[C@@H](C=C(CO)C[C@]3(O)C(=O)C(C)=C[C@@H]23)[C@@H]2C(C)(C)[C@]12OC(C)=O [Phorbol 12-myristate 13-acetate]	–	39.27	–	–
CC(C)C[C@H](NP(=O)([O-])O[C@H]1O[C@H](C)[C@@H](O)[C@H](O)[C@@H]1O)C(=O)N[C@@H](Cc1c[nH]c2ccccc12)C(=O)[O-].[Na+].[Na+] [Phosphoramidon disodium]	–	33.86	–	–
COc1cc(/C=C/C(=O)N2CCC=CC2=O)cc(OC)c1OC [Piperlongumine]	–	–	35.88	–
COc1cc([C@@H]2c3cc4c(cc3[C@H](O)[C@H]3COC(=O)[C@H]23)OCO4)cc(OC)c1OC [Podophyllotoxin]	–	–	35.15	–
CC(=O)[C@H]1CC[C@H]2[C@@H]3CC=C4C[C@@H](OS(=O)(=O)[O-])CC[C@]4(C)[C@H]3CC[C@]12C.[Na+] [Pregnenolone sulfate sodium]	–	34.01	–	–
CC(C)c1cccc(C(C)C)c1O [Propofol]	38.08	–	–	–
CN(C)C(=O)Oc1ccc[n+](C)c1 [Pyridostigmine bromide]	–	37.84	–	–
Oc1ccccc1O [Pyrocatechol]	–	–	–	10.12

Same assay, conditions: 20 µM

Structure (SMILES)	% inhibition [%]
CC(=O)[C@H]1CC[C@H]2[C@@H]3CC=C4C[C@@H](OS(=O)(=O)[O-])CC[C@]4(C)[C@H]3CC[C@]12C.[Na+] [Pregnenolone sulfate sodium]	7.19

Same assay, conditions: AspH activity; fixed compound concentration 20 μM; initial LOPAC screen; 0.5%v/v DMSO

Structure (SMILES)	Inhibition at 20 µM [%]
Br.C=CCN1CCc2c(cc(O)c(O)c2Br)[C@@H](c2ccccc2)C1 [R(+)-6-Bromo-APB hydrobromide, reference compound]	95.0

Same assay, conditions: AspH activity; fixed compound concentration 20 μM; initial LOPAC screen; 0.5%v/v DMSO; read-out: Inhibition at 20 µM [%]

Structure (SMILES)	inhibition at 20 µM [%]
Oc1cc(O)cc(/C=C/c2ccc(O)c(O)c2)c1 [Piceatannol, reference compound]	99.9

Same assay, conditions: LOPAC Plate 4, compound at 20 uM

Structure (SMILES)	% inhibition [%]
O=C(O)/C=C\C(=O)O.c1cnc(N2CCN(Cc3ccc4c(c3)OCO4)CC2)nc1 [Piribedil maleate]	-4.83
CCCN1CCC[C@H](c2cccc(O)c2)C1.Cl [R(+)-3PPP hydrochloride]	3.51

Same assay, conditions: LOPAC Plate 4, compound at 20 uM, substrate conversion

Structure (SMILES)	% conversion [%]
Cc1ccc(N(CC2=NCCN2)c2cccc(O)c2)cc1 [Phentolamine mesylate]	38.87
CCCCC1C(=O)N(c2ccccc2)N(c2ccccc2)C1=O [Phenylbutazone]	37.63
O=C(CCc1ccc(O)cc1)c1c(O)cc(O)cc1O [Phloretin]	29.69
O=C(O)CP(=O)(O)O [Phosphonoacetic acid]	17.53
COc1ccc(C(=O)NCc2cccnc2)cc1C(=O)NCc1cccnc1 [Picotamide]	30.17
NS(=O)(=O)C#Cc1ccccc1 [Pifithrin-mu]	31.04
CC(N/C(=N\C#N)Nc1ccncc1)C(C)(C)C (stereo not drawn) [Pinacidil]	37.72
Cc1nc2ccccn2c(=O)c1CCN1CCC(C(=O)c2ccc(F)cc2)CC1 [Pirenperone]	26.88
CN1CCN(CC(=O)N2c3ccccc3C(=O)Nc3cccnc32)CC1 [Pirenzepine dihydrochloride]	38.08
O=C(O)/C=C\C(=O)O.c1cnc(N2CCN(Cc3ccc4c(c3)OCO4)CC2)nc1 [Piribedil maleate]	38.12
CCCN[C@H]1CCc2nc(N)sc2C1 [Pramipexole dihydrochloride]	39.77
COc1cc2nc(N3CCN(C(=O)c4ccco4)CC3)nc(N)c2cc1OC [Prazosin hydrochloride]	34.08
CCCNC(C)C(=O)Nc1ccccc1C (stereo not drawn) [Prilocaine hydrochloride]	24.92
CCC1(c2ccccc2)C(=O)NCNC1=O [Primidone]	31.08
CCN(CC)CCNC(=O)c1ccc(N)cc1 [Procainamide hydrochloride]	38.98
CCN(CC)CCOC(=O)c1ccc(N)cc1 [Procaine hydrochloride]	34.46

Structure (SMILES)	% conversion [%]
CN1CCN(CCCN2c3ccccc3Sc3ccc(Cl)cc32)CC1 [Prochlorperazine dimaleate]	48.18
CN(C)CCCN1c2ccccc2Sc2ccccc21 [Promazine hydrochloride]	39.62
CC(C)[N+](C)(CCOC(=O)C1c2ccccc2Oc2ccccc21)C(C)C [Propantheline bromide]	33.19
CCC(=O)c1ccc2c(c1)N(CCCN(C)C)c1ccccc1S2 [Propionylpromazine hydrochloride]	44.67
C=CC1=C(C)c2cc3[nH]c(cc4nc(cc5[nH]c(cc1n2)c(C)c5CCC(=O)O)C(CCC(=O)O)=C4C)c(C)c3C=C [Protoporphyrin IX disodium]	20.78
CNCCCC1c2ccccc2C=Cc2ccccc21 [Protriptyline hydrochloride]	29.36
NCCCCN [Putrescine dihydrochloride]	39.89
NC(=O)c1cnccn1 [Pyrazinecarboxamide]	32.31
C[C@@H]1C(=O)NC2=Nc3cccc(Cl)c3CN21 [Quazinone]	40.20
CCN(CC)CCCC(C)Nc1c2ccc(Cl)cc2nc2ccc(OC)cc12 (stereo not drawn) [Quinacrine dihydrochloride]	39.58
CCCN1CCC[C@@H]2Cc3nc(N)ncc3C[C@H]21.Cl.Cl [Quinelorane dihydrochloride]	33.91
C=C[C@H]1C[N@@]2CC[C@H]1C[C@@H]2[C@@H](O)c1ccnc2ccc(OC)cc12 [Quinidine sulfate]	33.25
C=C[C@H]1C[N@@]2CC[C@H]1C[C@H]2[C@H](O)c1ccnc2ccc(OC)cc12 [Quinine sulfate]	30.14
O=C(O)c1cccnc1C(=O)O [Quinolinic acid]	7.93
O=C(O)/C=C\C(=O)O.O=[N+]([O-])c1ccc2nc(N3CCNCC3)ccc2c1 [Quipazine, 6-nitro-, maleate]	31.15
CCCN1CCC[C@H](c2cccc(O)c2)C1.Cl [R(+)-3PPP hydrochloride]	35.27

Same assay, conditions: LOPAC Plate 4, compound at 20 uM; read-out: % inhibition

Structure (SMILES)	inhibition at 20 µM [%]
Cc1ccc(N(CC2=NCCN2)c2cccc(O)c2)cc1 [Phentolamine mesylate]	-7.04
CCCCC1C(=O)N(c2ccccc2)N(c2ccccc2)C1=O [Phenylbutazone]	-3.41
O=C(O)CP(=O)(O)O [Phosphonoacetic acid]	55.5
CN1CCN(CC(=O)N2c3ccccc3C(=O)Nc3cccnc32)CC1 [Pirenzepine dihydrochloride]	-4.73
CCN(CC)CCNC(=O)c1ccc(N)cc1 [Procainamide hydrochloride]	-7.36
CCN(CC)CCOC(=O)c1ccc(N)cc1 [Procaine hydrochloride]	5.88
CN(C)CCCN1c2ccccc2Sc2ccccc21 [Promazine hydrochloride]	-9.23
CCC(=O)c1ccc2c(c1)N(CCCN(C)C)c1ccccc1S2 [Propionylpromazine hydrochloride]	-24
C=CC1=C(C)c2cc3[nH]c(cc4nc(cc5[nH]c(cc1n2)c(C)c5CCC(=O)O)C(CCC(=O)O)=C4C)c(C)c3C=C [Protoporphyrin IX disodium]	46
CNCCCC1c2ccccc2C=Cc2ccccc21 [Protriptyline hydrochloride]	20.8
NCCCCN [Putrescine dihydrochloride]	-10
C[C@@H]1C(=O)NC2=Nc3cccc(Cl)c3CN21 [Quazinone]	-10.9
CCN(CC)CCCC(C)Nc1c2ccc(Cl)cc2nc2ccc(OC)cc12 (stereo not drawn) [Quinacrine dihydrochloride]	-9.1
O=C(O)c1cccnc1C(=O)O [Quinolinic acid]	83.6

Same assay, conditions: LOPAC compound at 20uM, plate 2; normalised to DMSO and 2,4-PDCA controls

Structure (SMILES)	Plate 2 (% inhibition) [%]
CN1CCc2cc(Cl)c(O)cc2[C@@H](c2ccccc2)C1.Cl [R(+)-SCH-23390 hydrochloride]	-3.60

Same assay, conditions: LOPAC compound at 20uM, plate 3; conversion of substrate peptide

Structure (SMILES)	Plate 3 (% conversion) [%]
CNC[C@H](O)c1cccc(O)c1 [Phenylephrine hydrochloride]	35.74
Oc1cc(O)cc(/C=C/c2ccc(O)c(O)c2)c1 [Piceatannol, reference compound]	2.48
Cc1ccc(=O)n(-c2ccccc2)c1 [Pirfenidone]	40.30
CN1C(C(=O)Nc2ccccn2)=C(O)c2ccccc2S1(=O)=O [Piroxicam]	39.26
O=C(C1CCCCC1)N1CC(=O)N2CCc3ccccc3C2C1 (stereo not drawn) [Praziquantel]	41.06
CC(=O)[C@H]1CC[C@H]2[C@@H]3CCC4=CC(=O)CC[C@]4(C)[C@H]3CC[C@]12C [Progesterone]	43.81
CCCN(CCC)C(=O)C(CCC(=O)O)NC(=O)c1ccccc1 (stereo not drawn) [Proglumide]	27.88
CC(CN1c2ccccc2Sc2ccccc21)N(C)C (stereo not drawn) [Promethazine hydrochloride]	42.09
COc1ccc(CN(CCN(C)C)c2ccccn2)cc1 [Pyrilamine maleate]	36.13
C[C@@]1(C2CCCC2)Cc2cc(OCC(=O)O)c(Cl)c(Cl)c2C1=O [R(+)-IAA-94]	30.54

Same assay, conditions: LOPAC compound at fixed 20 uM; plate 1, normalised to DMSO and 2,4-PDCA controls

Structure (SMILES)	Plate 1 (% inhibition) [%]
O=c1ccc2c(OCCCCc3ccccc3)c3ccoc3cc2o1 [Psora-4]	4.97
Oc1ccccc1O [Pyrocatechol]	76.68
Br.C=CCN1CCc2c(cc(O)c(O)c2Br)[C@@H](c2ccccc2)C1 [R(+)-6-Bromo-APB hydrobromide, reference compound]	95.00

Same assay, conditions: LOPAC compound at fixed 20 uM; substrate conversion, plate 1

Structure (SMILES)	Plate 1 (% conversion) [%]
O=c1ccc2c(OCCCCc3ccccc3)c3ccoc3cc2o1 [Psora-4]	34.20
Br.C=CCN1CCc2c(cc(O)c(O)c2Br)[C@@H](c2ccccc2)C1 [R(+)-6-Bromo-APB hydrobromide, reference compound]	3.97

Same assay, conditions: read-out: Plate 2 (% inhibition)

Structure (SMILES)	inhibition at 20 µM [%]
CN1CC[C@@]2(C)c3cc(OC(=O)Nc4ccccc4)ccc3N(C)[C@@H]12 [Phenserine]	-7.56
CC(C)c1cccc(C(C)C)c1O [Propofol]	-6.34

Reference: PMC7251097, “Aspartate/asparagine-β-hydroxylase: a high-throughput mass spectrometric assay for discovery of small molecule inhibitors” (Scientific Reports, 2020)
